The values that follow come from US20060293264A1, “STAT3 decoy oligonucleotides and uses therefor” (priority 2004, published 2006).

Series [1] relates to STAT5. The series can be described thus: STAT5 activation by EMSA in harvested xenografts. Type of series: in vivo. To be noted: xenografts after 25 treatments; specificity. For orientation: A gel shift assay detects complexes by their altered migration in electrophoresis.
Series [2] concerns Cyclin D1. The series can be described thus: Cyclin D1 expression by immunoblotting in harvested xenografts. Type of series: in vivo, human. As to conditions: decoy alone, p=0.0022. How it is done:
(§1) Immunoblotting. Whole cell extracts were mixed with 2× sodium dodecyl sulfate (SDS) sample buffer (125 mmol/L Tris-HCL, pH 6.8; 4% SDS; 20% glycerol; 10% 2 mercaptoethanol) at 1:1 ratio and were heated for 5 min at 100° C. Proteins (50 μg/lane) were separated by 12.5% SDS-PAGE and transferred onto a nitrocellulose membrane (MSI; Westboro, Mass). Prestained molecular weight markers (GIBCO BRL; Gaithersburg, MD) were included in each gel. Membranes were blocked for 30 min in Tris-buffered saline (TBS: 10 mmol/L Tris-HCL, pH 7.5 and 150 mmol/L NaCl) with 0.5% Tween-20 (TBST) and 5% BSA. After blocking, membranes were incubated with a primary antibody; rabbit anti-human VEGF polyclonal antibody, rabbit anti-human Cyclin D1 polyclonal antibody, mouse anti-human Bcl-xL monoclonal antibody, or rabbit anti-human PCNA polyclonal antibody (Santa Cruz Biotechnology, Santa Cruz, Calif.), in TBST and 1% BSA. […] Quantification of Cyclin D1 and Bcl-xL was performed by using a Molecular Dynamics Personal Densitometer SI and IMAGEQUANT software (Image Products International, Chantilly, Va.). Immunoblotting bands were quantified by densitometry and the Molecular Analyst software (AlphaDigidoc 1000, Alpho-Innotech) with normalization of each band to their corresponding loading control (Xi, S., et al. J Biol Chem, 278: 31574-31583, 2003). […]

Series [3] relates to Cyclin D1. The series can be described thus: Cyclin D1 expression by immunoblotting in SCCHN cells in vitro. The class given is cell-based, human. As to conditions: 1483 cells; 25 μM, 6 days; p<0.0001. How it is done: as §1, with “BSA.” for “BSA. After blocking, membranes were incubated with a primary antibody; rabbit anti-human VEGF polyclonal antibody, rabbit anti-human Cyclin D1 polyclonal antibody, mouse anti-human Bcl-xL monoclonal antibody, or rabbit anti-human PCNA polyclonal antibody (Santa Cruz Biotechnology, Santa Cruz, Calif.), in TBST and 1% BSA.”
As shown above, treatment with the STAT3 decoy abrogates STAT3 target gene expression in vivo. […] The data were analyzed using parametric analysis of variance of a two-way factorial design. […]
(Immunoblotting shows a protein as a band on a membrane.)

Series [4] concerns p53-responsive element. As to the kind of experiment: p53-Luciferase reporter gene assay in UM-22B SCCHN cells. Type of series: cell-based. As to conditions: UM-22B p53-Luc, 2 μg transfected, 24 hrs. How it is done:
FIG. 8 depicts the inhibition of reporter gene expression from a p53-responsive element in SCCHN cells. An SCCHN cell line, UM-22B, was used to generate a stable cell line expressing a p53-Luciferase (p53-Luc) reporter gene (The p53-Luc plasmid carrying 14 repeats of p53 transcription recognition sequence: 5'-[…] ID NO: 30)), was obtained from Stratagene, Catalog number: 219085-51). The cells were transfected with 2 μg of the STAT3 decoy or the control mutant decoy. At 24 hrs after transfection, luciferase (Luc) activity was measured and normalized to the total amount of protein according to standard methods.

“STAT3 decoy (sense CATTTCCCGTAAATC; antisense GATTTACGGGAAATG; phosphorothioate modified, further chemistry not given here; listed as Homo sapiens)”: the STAT5 activation result in series [1] was “no abrogation”. For the same substance, in series [2], the “Cyclin D1 expression levels compared with mutant control decoy” value is given as “significant effect”. Also, in series [3], the “Cyclin D1 expression compared with mutant control decoy” value was “decreased”. The p53 reporter activity entry in series [4] is reported as “specifically interfere”.
